Measured values: patent US10052320B2, “Substituted quinoxalines as FGFR kinase inhibitors” (ASTEX THERAPEUTICS LIMITED, priority 2011, dated 2018)
Read-outs that look alike come from different tables or passages of the source.

Legend:
FGFR2 (h) = FGFR2 (h) (Homo sapiens, UniProt P21802); experiment: FGFR2 (enzymatic assay), TR-FRET; type: biochemical; details: read-out: FGFR 2 pIC50 (converted)
Description: In a final reaction volume of 30 μL, FGFR2 (h) (150 ng/ml) was incubated with 50 mM HEPES pH 7.5, 6 mM MnCl2, 1 mM DTT, 0.1 mM Na3VO4, 0.01% Triton-X-100, 500 nM Btn-Flt3 and 0.4 μM ATP in the presence of compound (1% DMSO final). […] Time-Resolved Fluorescence Resonance Energy Transfer (TR-FRET) signal (ex340 nm. Em 620 nm, em 655 nm) was measured afterwards and results are expressed in (Relative Fluorescence Units).

FGFR3 (h) = FGFR3 (h) (Homo sapiens, UniProt P22607); experiment: FGFR3 (enzymatic assay), TR-FRET; type: biochemical; details: read-out: FGFR 3 pIC50 (converted)
Description: (§1) In a final reaction volume of 30 μL, FGFR3 (h) (40 ng/ml) was incubated with 50 mM HEPES pH 7.5, 6 mM MnCl2, 1 mM DTT, 0.1 mM Na3VO4, 0.01% Triton-X-100, 500 nM Btn-Flt3 and 25 μM ATP in the presence of compound (1% DMSO final). […] Time-Resolved Fluorescence Resonance Energy Transfer (TR-FRET) signal (ex340 nm. Em 620 nm, em 655 nm) was measured afterwards and results are expressed in RFU (Relative Fluorescence Units).

FGFR4 (h) = FGFR4 (h) (Homo sapiens, UniProt P22455); experiment: FGFR4 (enzymatic assay), TR-FRET; type: biochemical; details: read-out: FGFR 4 pIC50 (converted)
Description: as §1, with “FGFR4” for “FGFR3”, “(60” for “(40”, “5” for “25”

[1] = target: T1, Ba/F3-Flt3-transfected cells (Homo sapiens, UniProt P36888, cells depend on it, form not given); experiment: Ba/F3-Flt3 (minus IL3) cellular proliferation assay, Alamar Blue; type: cell-based
T1 sequence (P36888 1-993): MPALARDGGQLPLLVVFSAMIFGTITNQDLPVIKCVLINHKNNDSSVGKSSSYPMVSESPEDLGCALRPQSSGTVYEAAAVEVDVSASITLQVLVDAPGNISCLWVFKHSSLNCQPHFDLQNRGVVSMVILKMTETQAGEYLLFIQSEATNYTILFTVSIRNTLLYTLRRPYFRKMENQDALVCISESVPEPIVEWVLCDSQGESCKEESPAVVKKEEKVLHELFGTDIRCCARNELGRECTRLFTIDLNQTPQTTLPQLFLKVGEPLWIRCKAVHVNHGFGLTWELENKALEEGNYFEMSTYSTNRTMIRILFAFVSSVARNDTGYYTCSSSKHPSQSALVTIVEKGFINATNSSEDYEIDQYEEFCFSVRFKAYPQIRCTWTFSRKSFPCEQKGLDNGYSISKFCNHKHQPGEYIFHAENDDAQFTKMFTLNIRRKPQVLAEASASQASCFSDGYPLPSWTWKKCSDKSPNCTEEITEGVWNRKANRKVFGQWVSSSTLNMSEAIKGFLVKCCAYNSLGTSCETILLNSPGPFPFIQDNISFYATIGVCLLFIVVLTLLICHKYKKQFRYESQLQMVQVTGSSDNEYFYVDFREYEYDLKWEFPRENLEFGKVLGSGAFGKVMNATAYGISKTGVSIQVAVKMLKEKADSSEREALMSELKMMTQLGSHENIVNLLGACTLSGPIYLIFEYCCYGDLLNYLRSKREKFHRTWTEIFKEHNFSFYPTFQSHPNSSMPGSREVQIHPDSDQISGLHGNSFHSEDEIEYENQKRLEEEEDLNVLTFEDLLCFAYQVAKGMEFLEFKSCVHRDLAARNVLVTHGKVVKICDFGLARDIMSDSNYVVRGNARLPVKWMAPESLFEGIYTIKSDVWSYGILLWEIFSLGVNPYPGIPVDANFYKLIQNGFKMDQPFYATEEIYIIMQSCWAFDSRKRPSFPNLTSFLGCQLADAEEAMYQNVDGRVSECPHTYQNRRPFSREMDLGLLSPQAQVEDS

[2] = target: Ba/F3-FGFR4-transfected cells (Homo sapiens, UniProt P22455); experiment: Ba/F3-FGFR4 cellular proliferation assay, Alamar Blue; type: cell-based
Description: Ba/F3-FGFR4 (Cellular Proliferation Assay)
In a 384 well plate, 100 nl of compound dilution in DMSO was sprayed before adding 50 μl cell culture medium (phenol red free RPMI-1640, 10% FBS, 2 mM L-Glutamine and 50 μg/ml Gentamycin) containing 20000 cells per well of Ba/F3-FGFR4-transfected cells. Cells were put in an incubator at 37° C. and 5% CO2. After 24 hours, 10 μl of Alamar Blue solution (0.5 mM K3Fe(CN)6, 0.5 mM KaFe(CN)6, 0.15 mM Resazurin and 100 mM Phosphate Buffer) was added to the wells, incubated for 4 hours at 37° C. and 5% CO2 before RFU's (Relative Fluorescence Units) (ex. 540 nm., em. 590 nm.) were measured in a flurorescence plate reader.

Sequence of FGFR2 (h) (P21802 22-821): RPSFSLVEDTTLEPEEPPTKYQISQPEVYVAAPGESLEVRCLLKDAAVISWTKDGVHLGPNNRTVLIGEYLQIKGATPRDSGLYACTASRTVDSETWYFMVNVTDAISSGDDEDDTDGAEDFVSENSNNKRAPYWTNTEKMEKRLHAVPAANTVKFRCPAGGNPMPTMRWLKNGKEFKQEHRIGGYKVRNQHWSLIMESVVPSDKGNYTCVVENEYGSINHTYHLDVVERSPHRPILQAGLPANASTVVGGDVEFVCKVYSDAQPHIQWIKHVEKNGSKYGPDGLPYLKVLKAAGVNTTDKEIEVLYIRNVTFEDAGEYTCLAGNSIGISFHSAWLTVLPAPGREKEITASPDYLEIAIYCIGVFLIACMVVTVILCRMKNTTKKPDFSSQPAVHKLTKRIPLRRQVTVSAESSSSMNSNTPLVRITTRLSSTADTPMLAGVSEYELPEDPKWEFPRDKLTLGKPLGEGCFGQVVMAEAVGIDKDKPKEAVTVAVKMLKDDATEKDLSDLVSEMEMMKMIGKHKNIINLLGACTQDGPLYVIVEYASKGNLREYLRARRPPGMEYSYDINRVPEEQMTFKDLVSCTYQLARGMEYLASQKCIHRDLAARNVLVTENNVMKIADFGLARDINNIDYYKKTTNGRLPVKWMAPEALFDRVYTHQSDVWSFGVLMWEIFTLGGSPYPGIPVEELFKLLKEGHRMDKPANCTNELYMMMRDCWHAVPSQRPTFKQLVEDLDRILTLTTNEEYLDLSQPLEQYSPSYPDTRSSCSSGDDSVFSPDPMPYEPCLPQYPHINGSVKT
Sequence of FGFR4 (h) (P22455 22-802): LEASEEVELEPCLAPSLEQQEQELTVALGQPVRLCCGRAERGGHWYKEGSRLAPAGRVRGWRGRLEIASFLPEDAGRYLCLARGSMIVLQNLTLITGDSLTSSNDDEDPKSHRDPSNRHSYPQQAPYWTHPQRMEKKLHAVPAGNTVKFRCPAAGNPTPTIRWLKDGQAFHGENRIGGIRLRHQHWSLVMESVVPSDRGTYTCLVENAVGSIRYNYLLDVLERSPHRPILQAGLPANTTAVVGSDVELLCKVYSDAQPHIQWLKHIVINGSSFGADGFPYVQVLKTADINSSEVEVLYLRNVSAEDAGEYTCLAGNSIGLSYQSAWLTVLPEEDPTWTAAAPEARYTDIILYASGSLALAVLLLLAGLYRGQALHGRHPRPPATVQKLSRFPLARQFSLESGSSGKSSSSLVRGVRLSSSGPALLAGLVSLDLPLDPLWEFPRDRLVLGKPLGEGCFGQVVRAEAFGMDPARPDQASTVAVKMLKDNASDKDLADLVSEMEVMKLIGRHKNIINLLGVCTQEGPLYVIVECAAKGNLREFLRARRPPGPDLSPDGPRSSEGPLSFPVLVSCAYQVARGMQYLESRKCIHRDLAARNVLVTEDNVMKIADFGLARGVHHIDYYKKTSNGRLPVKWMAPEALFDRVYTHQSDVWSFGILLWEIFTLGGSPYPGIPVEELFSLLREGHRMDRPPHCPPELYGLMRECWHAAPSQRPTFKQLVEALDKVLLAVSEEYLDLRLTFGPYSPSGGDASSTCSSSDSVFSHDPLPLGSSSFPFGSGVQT
Sequence of FGFR3 (h) (P22607 23-806): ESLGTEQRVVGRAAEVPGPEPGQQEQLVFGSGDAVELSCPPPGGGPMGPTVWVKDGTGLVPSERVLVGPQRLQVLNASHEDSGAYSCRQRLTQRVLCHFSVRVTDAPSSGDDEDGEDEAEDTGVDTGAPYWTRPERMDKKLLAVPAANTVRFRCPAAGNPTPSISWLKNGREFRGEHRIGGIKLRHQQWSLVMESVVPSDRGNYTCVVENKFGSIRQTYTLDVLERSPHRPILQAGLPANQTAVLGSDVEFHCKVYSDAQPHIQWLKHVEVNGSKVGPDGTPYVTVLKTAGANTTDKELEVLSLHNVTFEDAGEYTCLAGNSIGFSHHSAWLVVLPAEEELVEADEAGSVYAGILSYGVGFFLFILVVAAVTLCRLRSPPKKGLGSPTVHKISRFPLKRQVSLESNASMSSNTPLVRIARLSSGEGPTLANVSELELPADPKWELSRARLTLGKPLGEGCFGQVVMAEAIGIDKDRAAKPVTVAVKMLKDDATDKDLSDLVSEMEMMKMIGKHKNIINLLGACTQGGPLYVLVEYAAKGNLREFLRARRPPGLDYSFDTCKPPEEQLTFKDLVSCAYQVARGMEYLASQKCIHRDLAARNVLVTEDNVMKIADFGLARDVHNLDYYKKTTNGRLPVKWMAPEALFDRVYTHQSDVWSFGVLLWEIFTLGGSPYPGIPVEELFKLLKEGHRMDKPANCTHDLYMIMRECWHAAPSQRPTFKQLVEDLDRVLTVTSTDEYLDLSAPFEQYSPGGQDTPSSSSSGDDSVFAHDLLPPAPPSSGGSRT
Sequence of Ba/F3-FGFR4-transfected cells (P22455 whole entry, change not shown): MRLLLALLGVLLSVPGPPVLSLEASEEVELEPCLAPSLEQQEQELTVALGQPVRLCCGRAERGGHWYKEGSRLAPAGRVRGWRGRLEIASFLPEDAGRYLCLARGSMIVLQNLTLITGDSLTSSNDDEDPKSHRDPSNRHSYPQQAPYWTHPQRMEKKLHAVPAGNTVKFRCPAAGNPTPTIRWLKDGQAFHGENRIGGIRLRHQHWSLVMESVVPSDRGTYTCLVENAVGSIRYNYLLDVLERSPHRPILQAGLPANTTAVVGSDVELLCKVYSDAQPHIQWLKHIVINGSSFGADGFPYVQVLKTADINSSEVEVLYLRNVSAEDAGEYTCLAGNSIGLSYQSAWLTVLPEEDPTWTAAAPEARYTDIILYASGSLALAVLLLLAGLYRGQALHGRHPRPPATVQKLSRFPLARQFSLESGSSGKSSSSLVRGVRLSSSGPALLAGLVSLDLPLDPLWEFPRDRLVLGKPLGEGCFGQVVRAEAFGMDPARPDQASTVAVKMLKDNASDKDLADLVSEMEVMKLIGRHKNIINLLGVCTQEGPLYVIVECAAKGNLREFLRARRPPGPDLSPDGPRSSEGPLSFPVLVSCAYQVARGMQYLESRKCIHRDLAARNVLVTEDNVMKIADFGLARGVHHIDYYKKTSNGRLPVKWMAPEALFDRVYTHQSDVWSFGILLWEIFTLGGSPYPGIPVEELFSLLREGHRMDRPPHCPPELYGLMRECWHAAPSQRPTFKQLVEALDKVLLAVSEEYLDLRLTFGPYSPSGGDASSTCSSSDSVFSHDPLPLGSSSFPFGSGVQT

Structure (SMILES) | IC50 (FGFR2 (h)) [nM] | IC50 (FGFR3 (h)) [nM] | IC50 (FGFR4 (h)) [nM] | BAF3-FLT3 (MIN IL3) 384 well pIC50 ([1]; minus IL3) | BAF3-FGFR4 pIC50 [2] | BAF3-FLT3 (MIN IL3) 96 well pIC50 ([1]; minus IL3, 96 well) | BAF3-FLT3 (MIN IL3) 384 well pIC50 ([1]; minus IL3, 384 well) | BAF3-FGFR4 pIC50 ([2]; 384 well) | BAF3-FLT3 (MIN IL3) 96 well pIC50 ([1]; minus IL3)
COc1cc(OC)cc(N(CCO)c2ccc3ncc(-c4ccnc(C(=O)NCCCCCN)c4)nc3c2)c1 [Compound 138] | ~31.6 | 16.2 | 178 | <5 | 5.1 | – | – | – | –
COc1cc(OC)cc(N(CCNC(C)C)c2ccc3ncc(-n4cnc(CO)c4)nc3c2)c1 [Compound 77] | 9.12 | 12 | 52.5 | <5 | 6.9 | – | – | – | –
COc1cc(OC)cc(N(CC#Cc2ncccn2)c2ccc3ncc(-c4cccnc4)nc3c2)c1 [Compound 2] | 34.7 | 56.2 | 195 | <5 | 6.9 | – | – | – | –
COc1cc(OC)cc(N(CCO)c2ccc3ncc(/C(C)=N/OC(C)(C)C)nc3c2)c1 [Compound 171] | 724 | 501 | 871 | <5 | <5 | – | – | – | –
COc1cc(OC)cc(N(CCNC(C)C)c2ccc3ncc(NCC4CCNCC4)nc3c2)c1 [Compound 161] | 14.1 | 44.7 | 331 | <5 | <5 | – | – | – | –
COc1cc(OC)cc(N(CCCNC(C)C)c2ccc3ncc(-c4ccnc(NC(=O)NC(C)C)c4)nc3c2)c1 [Compound 131] | 4.68 | 5.89 | 21.4 | 5.5 | 6.0 | – | – | – | –
COc1cc(OC)cc(N(CCNC(C)C)c2ccc3ncc(N4CCC(CN)CC4)nc3c2)c1 [Compound 67] | 6.31 | 16.6 | 200 | 5 | 6.2 | – | – | – | –
COc1cc(OC)cc(N(CCCNCC(F)(F)F)c2ccc3ncc(-c4ccnc(Cl)c4)nc3c2)c1 [Compound 145] | 166 | 97.7 | 871 | <5 | <5.35 | – | – | – | –
COc1cc(OC)cc(N(CC2CC2)c2ccc3ncc(C#Cc4cncn4C)nc3c2)c1 [Compound 22] | 95.5 | 34.7 | 275 | – | – | <5 | <5 | <5 | –
COc1cc(OC)cc(N(CC2CC2)c2ccc3ncc(-c4cnc5[nH]ccc5c4)nc3c2)c1 [Compound 88] | 1150 | 380 | > 10000 | – | – | <5 | <5 | <5 | –
COc1cc(OC)cc(N(CCCO)c2ccc3ncc(-c4ccnc(C(=O)N5CCOCC5)c4)nc3c2)c1 [Compound 43] | 13.2 | 3.8 | 45.7 | <5 | 6.0 | – | – | – | –
COc1cc(OC)cc(N(CCNC(C)C)c2ccc3ncc(-c4ccc(N5CCN(C)CC5)nc4)nc3c2)c1 [Compound 170] | 3.98 | 6.17 | 28.8 | 5.47 | 6.2 | – | – | – | –
COc1cc(OC)cc(N(CCCNCC(F)(F)F)c2ccc3ncc(-c4ccnc(F)c4)nc3c2)c1 [Compound 144] | ~85.1 | 56.2 | 468 | <5 | <5 | – | – | – | –
COc1cc(OC)cc(N(CCCNCC(=O)O)c2ccc3ncc(-c4ccnc(C(=O)NCCCCN)c4)nc3c2)c1 [Compound 44] | 11 | 11.2 | 51.3 | <5 | <5.35 | – | – | – | –
COc1cc(OC)cc(N(CCCNCCCO)c2ccc3ncc(-c4ccnc(C(=O)NCCCCN)c4)nc3c2)c1 [Compound 132] | 8.71 | 18.6 | 117 | 5.31 | 5.6 | – | – | – | –
COCC(CN(c1cc(OC)cc(OC)c1)c1ccc2ncc(-c3cccnc3)nc2c1)OC(C)=O (single isomer, unassigned) [Compound 76] | 20 | 5.75 | 107 | <5 | 5.6 | – | – | – | –
COc1cc(OC)cc(N(CCCO)c2ccc3ncc(-c4ccnc(C(=O)NCCCCCN)c4)nc3c2)c1 [Compound 130] | 8.32 | 11.2 | 151 | <5 | 5.0 | – | – | – | –
COc1cc(OC)cc(N(CCN2CCOCC2)c2ccc3ncc(-c4ccc(N)nc4)nc3c2)c1 [Compound 169] | 15.8 | 6.46 | 53.7 | <5 | 6.0 | – | – | – | –
COc1cc(OC)cc(N(CCO)c2ccc3ncc(-c4ccnc(C(=O)NCCCCCO)c4)nc3c2)c1 [Compound 139] | 39.8 | 11.5 | 97.7 | <5 | <5 | – | – | – | –
COC(=O)C1CCCN1c1cnc2ccc(N(CCO)c3cc(OC)cc(OC)c3)cc2n1 (centres unmarked) [Compound 172] | 145 | 87.1 | 417 | 5.19 | 5.1 | – | – | – | –
COc1cc(OC)cc(N(CC2CC2)c2ccc3ncc(-n4cccn4)nc3c2)c1 [Compound 95] | > 10000 | 1450 | > 10000 | <5 | <5 | – | – | – | <5
COc1cc(OC)cc(N(CC2CC2)c2ccc3ncc(NC(=O)c4ccc(F)cc4)nc3c2)c1 [Compound 28] | 6170 | 1200 | > 10000 | <5 | <5 | – | – | – | <5
COc1cc(OC)cc(N(CCO)c2ccc3ncc(-c4ccc(N5CCNCC5)cc4)nc3c2)c1 [Compound 166] | 3.63 | 0.832 | 7.24 | 5.46 | 6.7 | – | – | – | –
COc1cc(OC)cc(N(CC2CC2)c2ccc3ncc(N4CCN(CCO)CC4)nc3c2)c1 [Compound 49] | 398 | 126 | 1580 | <5 | <5 | – | – | – | 5.2
